# Key:
# [1] = system: Crono. sakazakii ATCC 29544; assay: MIC in Nutrient Broth No. 2; format: cell-based, Cronobacter sakazakii; details: Nutrient Broth No. 2
# Description: (§1) Bacteria species as indicated in Table 1 were incubated for approximately 24 hours at 37° C.
# (§2) The tests were repeated with the addition of inducers. Methyl glycoside was the main inducer used, but other suitable inducers include isopropyl-β-D-thiogalactopyranoside, p-nitrophenyl-α-L-arabinopyranoside and p-nitrophenyl-β-D-xylopyranoside. Concentration of inducer in all cases was 100 μg/ml.
# Ent. cloacae ATCC 13047 = assay: MIC in Nutrient Broth No. 2; format: cell-based, Enterobacter cloacae; details: Nutrient Broth No. 2
# Description: as §1, §2
# E. hermanii ATCC 33650 = assay: MIC in Nutrient Broth No. 2; format: cell-based, Escherichia hermanii; details: Nutrient Broth No. 2
# Description: as §1, §2
# [2] = system: Kleb. aerogenes NCTC 88167; assay: MIC in Nutrient Broth No. 2; format: cell-based, Klebsiella aerogenes; details: Nutrient Broth No. 2
# Description: as §1, §2
# [3] = system: Kleb. pneumoniae ATCC 10031; assay: MIC in Nutrient Broth No. 2; format: cell-based, Klebsiella pneumoniae; details: Nutrient Broth No. 2
# Description: as §1, §2
# Staph. aureus = assay: MIC in Nutrient Broth No. 2; format: cell-based, Staphylococcus aureus; details: 8 strains, Nutrient Broth No. 2
# Description: as §1, §2
# Staph. epidermidis = assay: MIC in Nutrient Broth No. 2; format: cell-based, Staphylococcus epidermidis; details: 3 strains, Nutrient Broth No. 2
# Description: as §1, §2
# [4] = system: Staph. haemolyticus OCC 2223; assay: MIC in Nutrient Broth No. 2; format: cell-based, Staphylococcus haemolyticus; details: Nutrient Broth No. 2
# Description: as §1, §2
# [5] = system: Staph. saprophyticus ATCC 15305; assay: MIC in Nutrient Broth No. 2; format: cell-based, Staphylococcus saprophyticus; details: Nutrient Broth No. 2
# Description: as §1, §2
# [6] = system: Strep. agalactiae OCC 182; assay: MIC in Nutrient Broth No. 2; format: cell-based, Streptococcus agalactiae; details: Nutrient Broth No. 2
# Description: as §1, §2
# [7] = system: Strep. pneumoniae ATCC 6305; assay: MIC in Nutrient Broth No. 2; format: cell-based, Streptococcus pneumoniae; details: Nutrient Broth No. 2
# Description: as §1, §2
# [8] = system: Strep. pyogenes ATCC 19615; assay: MIC in Nutrient Broth No. 2; format: cell-based, Streptococcus pyogenes; details: Nutrient Broth No. 2
# Description: as §1, §2
# Strep. viridans OCC 234 = assay: MIC in Nutrient Broth No. 2; format: cell-based, Streptococcus viridans; details: Nutrient Broth No. 2
# Description: as §1, §2
# Ent. faecalis = assay: MIC in Nutrient Agar; format: cell-based, Enterococcus faecalis; details: Nutrient Agar containing 0.1 μg/ml of inducer; 37° C., 24 hours
# Description: (§3) The triclosan-glycosides were added to Nutrient Agar (Oxoid CM0003; Thermofisher Scientific) and organisms were transferred onto the plates surface using a multi-point inoculation device (Oxoid Cathra, Thermofisher Scientific). The latter is essentially a metal plate containing a number of needles. Each needle tip (usually 36 per plate) dips into an organism suspension (in phosphate buffered saline; PBS) and the needles are then moved over the agar plate and lowered onto its surface. In this way the growth of colonies of up to 36 different organisms can be observed on one plate.
# (§4) Nutrient Agar No. 2 was prepared according to the manufacturers instructions, autoclaved and cooled to 50° C. Test compounds were then added as filter sterilised solutions (50:50 deionised water:ethanol), to give final concentrations from 256 μg/ml to 0 μg/ml in doubling dilutions. […] The mixtures were swirled then four plates (25 ml molten agar) were poured for each concentration. Plates were dried in a laminar flow cabinet then inoculated with overnight cultures of organisms that had been decimally diluted twice in sterile saline solution (approximately 10^7 cfu/ml) using a multi-point inoculator. Plates were then incubated at 37° C. for 24 hours. MICs were determined as the concentration at which no growth was observed.
# Ent. faecium = assay: MIC in Nutrient Agar; format: cell-based, Enterococcus faecium; details: Nutrient Agar containing 0.1 μg/ml of inducer; 37° C., 24 hours
# Description: as §3, §4
# S. aureus = assay: MIC in Nutrient Agar; format: cell-based, Staphylococcus aureus; details: 8 strains; Nutrient Agar containing 0.1 μg/ml of inducer; 37° C., 24 hours
# Description: as §3, §4
# S. epidermidis = assay: MIC in Nutrient Agar; format: cell-based, Staphylococcus epidermidis; details: 3 strains; Nutrient Agar containing 0.1 μg/ml of inducer; 37° C., 24 hours
# Description: as §3, §4
# S. haemolyticus = assay: MIC in Nutrient Agar; format: cell-based, Staphylococcus haemolyticus; details: Nutrient Agar containing 0.1 μg/ml of inducer; 37° C., 24 hours
# Description: as §3, §4
# Str. agalactiae = assay: MIC in Nutrient Agar; format: cell-based, Streptococcus agalactiae; details: Nutrient Agar containing 0.1 μg/ml of inducer; 37° C., 24 hours
# Description: as §3, §4
# Str. pneumoniae = assay: MIC in Nutrient Agar; format: cell-based, Streptococcus pneumoniae; details: Nutrient Agar containing 0.1 μg/ml of inducer; 37° C., 24 hours
# Description: as §3, §4
# Str. pyogenes = assay: MIC in Nutrient Agar; format: cell-based, Streptococcus pyogenes; details: Nutrient Agar containing 0.1 μg/ml of inducer; 37° C., 24 hours
# Description: as §3, §4
# Aer. hydrophila = assay: MIC in Nutrient Agar; format: cell-based, Aeromonas hydrophila; details: Nutrient Agar containing 0.1 μg/ml of inducer; 37° C., 24 hours
# Description: as §3, §4
# Cr. sakazakii = assay: MIC in Nutrient Agar; format: cell-based, Cronobacter sakazakii; details: Nutrient Agar containing 0.1 μg/ml of inducer; 37° C., 24 hours
# Description: as §3, §4
# Ent. aerogenes = assay: MIC in Nutrient Agar; format: cell-based, Enterobacter aerogenes; details: Nutrient Agar containing 0.1 μg/ml of inducer; 37° C., 24 hours
# Description: as §3, §4
# Ent. cloacae = assay: MIC in Nutrient Agar; format: cell-based, Enterobacter cloacae; details: Nutrient Agar containing 0.1 μg/ml of inducer; 37° C., 24 hours
# Description: as §3, §4
# Bacillus cereus = assay: MIC in Nutrient Agar; format: cell-based; details: Nutrient Agar containing 0.1 μg/ml of inducer; 37° C., 24 hours
# Description: as §3, §4
# Bacillus subtilis = assay: MIC in Nutrient Agar; format: cell-based; details: Nutrient Agar containing 0.1 μg/ml of inducer; 37° C., 24 hours
# Description: as §3, §4
# Hafnia alvei = assay: MIC in Nutrient Agar; format: cell-based; details: Nutrient Agar containing 0.1 μg/ml of inducer; 37° C., 24 hours
# Description: as §3, §4
# Ps. aeruginosa = assay: MIC in Nutrient Agar; format: cell-based; details: Nutrient Agar containing 0.1 μg/ml of inducer; 37° C., 24 hours
# Description: as §3, §4
# Salmonella = assay: MIC in Nutrient Agar; format: cell-based; details: 11 strains; Nutrient Agar containing 0.1 μg/ml of inducer; 37° C., 24 hours
# Description: as §3, §4
# Kleb. aerogenes = assay: MIC in Nutrient Agar; format: cell-based, Klebsiella aerogenes; details: Nutrient Agar containing 0.1 μg/ml of inducer; 37° C., 24 hours
# Description: as §3, §4
# Kleb. pneumoniae = assay: MIC in Nutrient Agar; format: cell-based, Klebsiella pneumoniae; details: Nutrient Agar containing 0.1 μg/ml of inducer; 37° C., 24 hours
# Description: as §3, §4
# Ser. marcescens = assay: MIC in Nutrient Agar; format: cell-based, Serratia marcescens; details: Nutrient Agar containing 0.1 μg/ml of inducer; 37° C., 24 hours
# Description: as §3, §4
structure (smiles),measurement,setting,value
"OC[C@H]1O[C@H](Oc2cc(Cl)ccc2Oc2ccc(Cl)cc2Cl)[C@@H](O)[C@@H](O)[C@@H]1O [α-D-Mannoside, triclosan-α-D-mannopyranoside]",MIC,[1]; with inducer 100 μg/ml,32 µg/mL
same,MIC,[1]; without inducer,128 µg/mL
same,MIC,Ent. cloacae ATCC 13047; with inducer 100 μg/ml,8 µg/mL
same,MIC,Ent. cloacae ATCC 13047; without inducer,8 µg/mL
same,MIC,E. hermanii ATCC 33650; with inducer 100 μg/ml,8 µg/mL
same,MIC,E. hermanii ATCC 33650; without inducer,16 µg/mL
same,MIC,[2]; with inducer 100 μg/ml,32 µg/mL
same,MIC,[2]; without inducer,32 µg/mL
same,MIC,[3]; with inducer 100 μg/ml,2 µg/mL
same,MIC,[3]; without inducer,4 µg/mL
same,MIC,Staph. aureus; with inducer 100 μg/ml,2 to 8 µg/mL
same,MIC,Staph. aureus; without inducer,2 to 8 µg/mL
same,MIC,Staph. epidermidis; with inducer 100 μg/ml,4 to 8 µg/mL
same,MIC,Staph. epidermidis; without inducer,4 to 8 µg/mL
same,MIC,[4]; with inducer 100 μg/ml,8 µg/mL
same,MIC,[4]; without inducer,8 µg/mL
same,MIC,[5]; with inducer 100 μg/ml,32 µg/mL
same,MIC,[5]; without inducer,32 µg/mL
same,MIC,[6]; with inducer 100 μg/ml,128 µg/mL
same,MIC,[6]; without inducer,128 µg/mL
same,MIC,[7]; with inducer 100 μg/ml,128 µg/mL
same,MIC,[7]; without inducer,64 µg/mL
same,MIC,[8]; with inducer 100 μg/ml,32 µg/mL
same,MIC,[8]; without inducer,32 µg/mL
same,MIC,Strep. viridans OCC 234; with inducer 100 μg/ml,128 µg/mL
same,MIC,Strep. viridans OCC 234; without inducer,128 µg/mL
same,MIC,Ent. faecalis,256 µg/mL
same,MIC,Ent. faecium,256 µg/mL
same,MIC,S. aureus,4 to 8 µg/mL
same,MIC,S. epidermidis,8 µg/mL
same,MIC,S. haemolyticus,8 µg/mL
same,MIC,Str. agalactiae,128 µg/mL
same,MIC,Str. pneumoniae,64 µg/mL
same,MIC,Str. pyogenes,64 µg/mL
same,MIC,Aer. hydrophila,256 µg/mL
same,MIC,Cr. sakazakii,64 µg/mL
same,MIC,Ent. aerogenes,64 µg/mL
same,MIC,Ent. cloacae,16 µg/mL
same,MIC,Bacillus cereus,128 µg/mL
same,MIC,Bacillus subtilis,256 µg/mL
same,MIC,Hafnia alvei,4 µg/mL
same,MIC,Ps. aeruginosa,>256 µg/mL
same,MIC,Salmonella,16 to 32 µg/mL
same,MIC,Kleb. aerogenes,32 µg/mL
same,MIC,Kleb. pneumoniae,16 µg/mL
same,MIC,Ser. marcescens,>256 µg/mL
"O[C@@H]1[C@H](Oc2cc(Cl)ccc2Oc2ccc(Cl)cc2Cl)OC[C@@H](O)[C@H]1O [β-D-Arabinoside, triclosan-β-D-arabinopyranoside]",MIC,[1]; with inducer 100 μg/ml,64 µg/mL
same,MIC,[1]; without inducer,128 µg/mL
same,MIC,Ent. cloacae ATCC 13047; with inducer 100 μg/ml,16 µg/mL
same,MIC,Ent. cloacae ATCC 13047; without inducer,16 µg/mL
same,MIC,E. hermanii ATCC 33650; with inducer 100 μg/ml,16 µg/mL
same,MIC,E. hermanii ATCC 33650; without inducer,32 µg/mL
same,MIC,[2]; with inducer 100 μg/ml,32 µg/mL
same,MIC,[2]; without inducer,32 µg/mL
same,MIC,[3]; with inducer 100 μg/ml,8 µg/mL
same,MIC,[3]; without inducer,4 µg/mL
same,MIC,Staph. aureus; with inducer 100 μg/ml,4 to 8 µg/mL
same,MIC,Staph. aureus; without inducer,4 to 8 µg/mL
same,MIC,Staph. epidermidis; with inducer 100 μg/ml,4 to 64 µg/mL
same,MIC,Staph. epidermidis; without inducer,8 to 16 µg/mL
same,MIC,[4]; with inducer 100 μg/ml,16 µg/mL
same,MIC,[4]; without inducer,128 µg/mL
same,MIC,[5]; with inducer 100 μg/ml,64 µg/mL
same,MIC,[5]; without inducer,64 µg/mL
same,MIC,[6]; with inducer 100 μg/ml,128 µg/mL
same,MIC,[6]; without inducer,128 µg/mL
same,MIC,[7]; with inducer 100 μg/ml,64 µg/mL
same,MIC,[7]; without inducer,64 µg/mL
same,MIC,[8]; with inducer 100 μg/ml,32 µg/mL
same,MIC,[8]; without inducer,32 µg/mL
same,MIC,Strep. viridans OCC 234; with inducer 100 μg/ml,128 µg/mL
same,MIC,Strep. viridans OCC 234; without inducer,128 µg/mL
same,MIC,Ent. faecalis,256 µg/mL
same,MIC,Ent. faecium,256 µg/mL
same,MIC,S. aureus,8 to 16 µg/mL
same,MIC,S. epidermidis,16 µg/mL
same,MIC,S. haemolyticus,16 µg/mL
same,MIC,Str. agalactiae,128 µg/mL
same,MIC,Str. pneumoniae,64 µg/mL
same,MIC,Str. pyogenes,64 µg/mL
same,MIC,Aer. hydrophila,256 µg/mL
same,MIC,Cr. sakazakii,256 µg/mL
same,MIC,Ent. aerogenes,64 µg/mL
same,MIC,Ent. cloacae,16 µg/mL
same,MIC,Bacillus cereus,256 µg/mL
same,MIC,Bacillus subtilis,256 µg/mL
same,MIC,Hafnia alvei,8 µg/mL
same,MIC,Ps. aeruginosa,>256 µg/mL
same,MIC,Salmonella,32 to 64 µg/mL
same,MIC,Kleb. aerogenes,64 µg/mL
same,MIC,Kleb. pneumoniae,8 µg/mL
same,MIC,Ser. marcescens,>256 µg/mL

# From US9908912B2, “Triclosan derivatives and uses thereof” (priority 2012, dated 2018)
